Measurements: publication PMC10732257 (Oncotarget, 2023)

How the values were obtained:
D2 (dopamine) = target: T1, D2 (dopamine) (Homo sapiens, UniProt P14416); experiment: GPCR agonist action testing; type: cell-based
T1 construct: Wuxi AppTech (contract laboratory)
Source text: (§1) Supplementary Table 2: Results of GPCR agonist action testing of GFH009 administered at a
(§2) Agonist action against GPCR type shown below
(§3) Target % Agonist Effect @ Max Dose
(§4) M1 (muscarinic Ach) −2.18
(§5) M2 (muscarinic Ach) −0.63

ETA (endothelin) = target: T2, ETA (endothelin) (Homo sapiens, UniProt P25101); experiment: GPCR agonist action testing; type: cell-based
T2 construct: Wuxi AppTech (contract laboratory)
Source text: as §1, §2, §3, §4, §5

b1 (adrenoceptor) = target: T3, b1 (adrenoceptor) (Homo sapiens, UniProt P08588); experiment: GPCR agonist action testing; type: cell-based
T3 construct: Wuxi AppTech (contract laboratory)
Source text: as §1, §2, §3, §4, §5

M3 (muscarinic Ach) [1] = target: T4, M3 (muscarinic Ach) (Homo sapiens, UniProt P20309); experiment: GPCR agonist action testing; type: cell-based
Source text: as §1, §2, §3, §4, §5

CCKa = target: T5, CCKa (Homo sapiens, UniProt P32238); experiment: GPCR agonist action testing; type: cell-based
T5 construct: Wuxi AppTech (contract laboratory)
Source text: as §1, §2, §3, §4, §5

V1A (vasopressin) = V1A (vasopressin) (Homo sapiens, UniProt P37288); experiment: GPCR agonist action testing; type: cell-based
Source text: as §1, §2, §3, §4, §5

H2 (histamine) = H2 (histamine) (Homo sapiens, UniProt P25021); experiment: GPCR agonist action testing; type: cell-based
Source text: as §1, §2, §3, §4, §5

CDK13/cyclin K = target: T6, CDK13/cyclin K (Homo sapiens, UniProt Q14004); experiment: CDK family off-target kinase activity (Eurofins); type: biochemical
T6 construct: purchased Eurofins Pharma Discovery Services UK Ltd
Source text: The pharmacodynamic and mechanistic foundation for the
CDK9 inhibitor for the treatment of hematologic malignancies
Supplementary Table 1: Inhibitory action of GFH009 on other CDK family members
Various CDK/ Remaining enzymatic activity (%) after
cognate cyclin pairs tested exposure to GFH009 at a concentration of Selectivity vs. CDK9
(also on this page, place not known: www.oncotarget.com Oncotarget, Materials Supplementary)
(1 picture or pasted object on this page, not shown here)

M1 (muscarinic Ach) = M1 (muscarinic Ach) (Homo sapiens, UniProt P11229); experiment: GPCR competitive antagonist (off-target inhibitory action) testing; type: cell-based
Source text: (§6) Supplementary Table 3: Results of off-target inhibitory action testing of GFH009 administered at
(§7) Competitive antagonist activity against GPCR type shown below
(§8) Target % Inhibitory Effect @ Max Dose
(§9) M1 (muscarinic Ach) 98.78
(§10) M2 (muscarinic Ach) 95.69
(§11) M3 (muscarinic Ach) 99.12

M3 (muscarinic Ach) [2] = target: T4, M3 (muscarinic Ach); experiment: as above; type: cell-based
Source text: as §6, §7, §8, §9, §10, §11

M2 (muscarinic Ach) = M2 (muscarinic Ach) (Homo sapiens, UniProt P08172); experiment: as above; type: cell-based
Source text: as §6, §7, §8, §9, §10, §11

T6 sequence (Q14004 whole entry): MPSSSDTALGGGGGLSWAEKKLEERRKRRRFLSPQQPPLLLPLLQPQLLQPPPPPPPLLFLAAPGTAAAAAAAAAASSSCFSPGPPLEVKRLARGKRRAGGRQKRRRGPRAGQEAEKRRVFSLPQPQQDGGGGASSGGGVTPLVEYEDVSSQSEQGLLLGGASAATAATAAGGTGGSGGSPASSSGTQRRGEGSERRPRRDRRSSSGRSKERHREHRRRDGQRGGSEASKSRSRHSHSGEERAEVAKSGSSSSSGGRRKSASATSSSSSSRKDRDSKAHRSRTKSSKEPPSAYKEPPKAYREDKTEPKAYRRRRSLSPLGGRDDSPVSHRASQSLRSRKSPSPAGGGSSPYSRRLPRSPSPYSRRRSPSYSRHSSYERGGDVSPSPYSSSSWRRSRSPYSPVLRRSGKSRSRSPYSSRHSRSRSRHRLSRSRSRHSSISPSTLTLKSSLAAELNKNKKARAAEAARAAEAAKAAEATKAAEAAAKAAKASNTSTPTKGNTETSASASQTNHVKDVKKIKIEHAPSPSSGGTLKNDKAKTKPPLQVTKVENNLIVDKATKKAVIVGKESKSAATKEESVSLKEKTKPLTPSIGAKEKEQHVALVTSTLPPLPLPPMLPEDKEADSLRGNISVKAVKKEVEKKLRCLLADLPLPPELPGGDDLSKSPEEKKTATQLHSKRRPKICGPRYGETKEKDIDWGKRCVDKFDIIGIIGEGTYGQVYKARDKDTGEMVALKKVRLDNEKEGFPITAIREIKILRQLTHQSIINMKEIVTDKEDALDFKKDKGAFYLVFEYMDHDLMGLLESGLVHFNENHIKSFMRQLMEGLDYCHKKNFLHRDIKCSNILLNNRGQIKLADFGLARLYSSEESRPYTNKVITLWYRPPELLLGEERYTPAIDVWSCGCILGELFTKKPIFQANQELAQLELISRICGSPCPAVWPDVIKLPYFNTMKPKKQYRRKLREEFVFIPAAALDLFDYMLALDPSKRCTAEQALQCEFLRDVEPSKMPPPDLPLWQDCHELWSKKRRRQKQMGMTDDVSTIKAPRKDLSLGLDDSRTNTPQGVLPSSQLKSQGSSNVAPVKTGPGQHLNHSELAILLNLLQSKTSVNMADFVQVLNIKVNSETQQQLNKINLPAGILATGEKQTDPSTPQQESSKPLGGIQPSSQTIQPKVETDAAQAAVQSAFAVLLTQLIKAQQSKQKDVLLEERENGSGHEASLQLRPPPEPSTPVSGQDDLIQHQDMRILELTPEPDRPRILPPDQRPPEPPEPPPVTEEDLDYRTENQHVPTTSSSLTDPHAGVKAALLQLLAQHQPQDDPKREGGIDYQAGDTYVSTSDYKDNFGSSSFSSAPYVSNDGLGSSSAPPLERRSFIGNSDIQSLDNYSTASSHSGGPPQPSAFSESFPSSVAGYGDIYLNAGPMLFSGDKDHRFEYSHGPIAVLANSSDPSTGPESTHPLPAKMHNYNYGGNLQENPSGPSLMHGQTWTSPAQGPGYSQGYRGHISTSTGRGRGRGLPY
T6 sequence (O75909 whole entry partner): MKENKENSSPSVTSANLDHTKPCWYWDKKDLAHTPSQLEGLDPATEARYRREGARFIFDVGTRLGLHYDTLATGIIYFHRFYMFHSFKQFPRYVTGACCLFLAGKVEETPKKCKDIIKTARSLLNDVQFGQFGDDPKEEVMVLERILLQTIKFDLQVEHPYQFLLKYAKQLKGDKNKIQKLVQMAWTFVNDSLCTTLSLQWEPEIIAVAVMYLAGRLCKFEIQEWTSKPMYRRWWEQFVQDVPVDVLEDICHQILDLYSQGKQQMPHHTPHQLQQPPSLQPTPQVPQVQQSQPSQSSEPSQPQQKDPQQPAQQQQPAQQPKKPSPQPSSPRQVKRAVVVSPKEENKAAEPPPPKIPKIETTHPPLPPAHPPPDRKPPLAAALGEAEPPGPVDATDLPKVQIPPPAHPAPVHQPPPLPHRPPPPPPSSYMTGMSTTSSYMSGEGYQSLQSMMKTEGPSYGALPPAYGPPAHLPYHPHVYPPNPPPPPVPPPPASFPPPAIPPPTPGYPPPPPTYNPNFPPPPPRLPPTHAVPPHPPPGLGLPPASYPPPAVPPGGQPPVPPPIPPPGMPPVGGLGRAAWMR
T4 sequence (P20309 whole entry): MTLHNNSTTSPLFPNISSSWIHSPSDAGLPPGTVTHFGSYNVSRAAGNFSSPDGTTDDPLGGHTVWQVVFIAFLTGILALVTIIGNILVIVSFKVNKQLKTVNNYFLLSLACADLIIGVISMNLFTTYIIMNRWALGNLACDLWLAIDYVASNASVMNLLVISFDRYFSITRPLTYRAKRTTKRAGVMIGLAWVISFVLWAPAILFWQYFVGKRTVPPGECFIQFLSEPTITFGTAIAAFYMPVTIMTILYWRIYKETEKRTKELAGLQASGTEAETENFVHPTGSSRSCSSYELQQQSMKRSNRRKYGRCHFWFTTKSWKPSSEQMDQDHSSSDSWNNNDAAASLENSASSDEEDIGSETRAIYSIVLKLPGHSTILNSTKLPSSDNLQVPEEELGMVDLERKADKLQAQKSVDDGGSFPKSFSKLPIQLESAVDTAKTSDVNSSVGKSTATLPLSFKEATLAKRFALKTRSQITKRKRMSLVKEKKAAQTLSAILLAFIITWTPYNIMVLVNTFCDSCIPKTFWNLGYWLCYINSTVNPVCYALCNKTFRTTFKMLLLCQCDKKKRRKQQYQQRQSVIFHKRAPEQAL
Sequence of H2 (histamine) (P25021 whole entry): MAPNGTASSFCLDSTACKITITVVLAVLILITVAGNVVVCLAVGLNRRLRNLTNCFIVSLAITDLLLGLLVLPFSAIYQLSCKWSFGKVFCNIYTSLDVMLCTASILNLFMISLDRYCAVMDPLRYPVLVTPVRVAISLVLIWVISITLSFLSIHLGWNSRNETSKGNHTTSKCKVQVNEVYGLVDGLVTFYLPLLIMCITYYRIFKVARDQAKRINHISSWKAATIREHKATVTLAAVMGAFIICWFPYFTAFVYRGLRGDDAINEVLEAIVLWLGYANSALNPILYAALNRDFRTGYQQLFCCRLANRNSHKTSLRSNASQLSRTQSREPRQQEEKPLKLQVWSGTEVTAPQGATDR
T1 sequence (P14416 whole entry): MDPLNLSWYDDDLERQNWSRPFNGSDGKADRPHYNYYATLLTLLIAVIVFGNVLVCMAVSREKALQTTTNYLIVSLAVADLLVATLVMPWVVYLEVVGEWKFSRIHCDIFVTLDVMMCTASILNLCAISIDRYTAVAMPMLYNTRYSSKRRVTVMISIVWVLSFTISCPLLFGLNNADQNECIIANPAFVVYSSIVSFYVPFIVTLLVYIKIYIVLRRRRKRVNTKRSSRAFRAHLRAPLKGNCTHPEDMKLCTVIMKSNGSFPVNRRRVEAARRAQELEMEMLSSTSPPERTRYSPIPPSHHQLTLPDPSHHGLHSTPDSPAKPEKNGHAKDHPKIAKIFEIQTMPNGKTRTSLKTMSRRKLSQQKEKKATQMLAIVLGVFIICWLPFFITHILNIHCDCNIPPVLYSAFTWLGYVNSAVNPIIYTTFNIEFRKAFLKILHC
T2 sequence (P25101 21-427): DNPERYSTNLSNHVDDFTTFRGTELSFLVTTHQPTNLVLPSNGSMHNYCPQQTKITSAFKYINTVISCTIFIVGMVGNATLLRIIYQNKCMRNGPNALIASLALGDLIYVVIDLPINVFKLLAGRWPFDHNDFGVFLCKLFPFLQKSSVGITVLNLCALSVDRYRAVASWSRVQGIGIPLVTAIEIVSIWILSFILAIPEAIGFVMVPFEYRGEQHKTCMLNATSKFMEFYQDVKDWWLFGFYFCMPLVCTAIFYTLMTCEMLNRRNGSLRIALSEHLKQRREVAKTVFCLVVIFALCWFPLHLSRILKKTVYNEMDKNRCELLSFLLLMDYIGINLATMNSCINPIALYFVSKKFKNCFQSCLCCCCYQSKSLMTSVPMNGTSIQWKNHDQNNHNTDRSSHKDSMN
T5 sequence (P32238 whole entry): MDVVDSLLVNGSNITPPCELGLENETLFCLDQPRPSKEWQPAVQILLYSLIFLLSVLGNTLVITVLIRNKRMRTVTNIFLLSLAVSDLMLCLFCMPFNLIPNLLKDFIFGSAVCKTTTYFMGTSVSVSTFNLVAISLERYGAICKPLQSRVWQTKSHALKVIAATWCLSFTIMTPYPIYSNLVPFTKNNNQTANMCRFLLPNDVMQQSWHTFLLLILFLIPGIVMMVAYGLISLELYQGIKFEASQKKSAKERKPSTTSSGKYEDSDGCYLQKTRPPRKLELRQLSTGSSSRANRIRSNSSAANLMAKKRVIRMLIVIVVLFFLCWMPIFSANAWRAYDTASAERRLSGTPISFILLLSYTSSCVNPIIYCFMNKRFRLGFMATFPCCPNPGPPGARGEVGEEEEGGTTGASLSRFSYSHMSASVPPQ
T3 sequence (P08588 whole entry): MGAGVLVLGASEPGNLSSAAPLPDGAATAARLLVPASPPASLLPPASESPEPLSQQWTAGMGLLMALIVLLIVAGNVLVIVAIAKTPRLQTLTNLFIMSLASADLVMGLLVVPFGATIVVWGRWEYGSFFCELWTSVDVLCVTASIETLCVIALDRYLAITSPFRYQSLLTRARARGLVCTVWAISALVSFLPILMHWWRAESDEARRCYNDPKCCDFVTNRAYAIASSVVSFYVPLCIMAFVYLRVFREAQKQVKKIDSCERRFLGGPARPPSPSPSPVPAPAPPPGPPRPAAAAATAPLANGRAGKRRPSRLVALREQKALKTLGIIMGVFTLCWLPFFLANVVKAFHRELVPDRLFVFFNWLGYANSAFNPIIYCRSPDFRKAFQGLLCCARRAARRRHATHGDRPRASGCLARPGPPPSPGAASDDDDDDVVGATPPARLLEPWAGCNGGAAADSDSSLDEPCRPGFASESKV

What does the source list for `COC[C@@H](C)NC1CCC(Nc2cc(-c3csc(NCC4(C#N)CCOCC4)n3)c(Cl)cn2)CC1` (stereo partly shown) [GFH009]?
% Agonist Effect @ Max Dose (12 µM) (D2 (dopamine)): 3.66%; % Agonist Effect @ Max Dose (12 µM) (ETA (endothelin)): −0.08%; % Agonist Effect @ Max Dose (12 µM) (b1 (adrenoceptor)): 4.53%; % Agonist Effect @ Max Dose (12 µM) (M3 (muscarinic Ach) [1]): 0.49%; % Agonist Effect @ Max Dose (12 µM) (CCKa): −0.4%; % Agonist Effect @ Max Dose (12 µM) (V1A (vasopressin)): 0.59%; % Agonist Effect @ Max Dose (12 µM) (H2 (histamine)): −0.03%; Selectivity vs. CDK9 (CDK13/cyclin K): > 1000; Remaining enzymatic activity (%) after exposure to GFH009 (CDK13/cyclin K; 1 µM): 93%; Remaining enzymatic activity (%) after exposure to GFH009 (CDK13/cyclin K; 10 µM): 88%; % Inhibitory Effect @ Max Dose (10 µM) (M1 (muscarinic Ach)): 98.78%; % Inhibitory Effect @ Max Dose (10 µM) (M3 (muscarinic Ach) [2]): 99.12%; % Inhibitory Effect @ Max Dose (10 µM) (M2 (muscarinic Ach)): 95.69%
